Data taken from the NIST ThermoML archive (doi:10.1016/j.tca.2015.01.022).

Test: molar heat capacity at constant pressure
Details: 101.33 kPa, Small (less than 1 g) adiabatic calorimetry

CCCCn1cc[n+](C)c1.F[B-](F)(F)F [1-butyl-3-methylimidazolium tetrafluoroborate]
Details | molar heat capacity at constant pressure [J/K/mol]
5 K, Glass | 1.47
5.16 K, Glass | 1.62
5.39 K, Glass | 1.822
5.67 K, Glass | 2.094
5.96 K, Glass | 2.397
6.28 K, Glass | 2.762
6.64 K, Glass | 3.192
7 K, Glass | 3.657
7.36 K, Glass | 4.172
7.73 K, Glass | 4.709
8.11 K, Glass | 5.283
8.49 K, Glass | 5.896
8.87 K, Glass | 6.54
9.26 K, Glass | 7.211
9.64 K, Glass | 7.915
10 K, Glass | 8.59
10.03 K, Glass | 8.641
10.52 K, Glass | 9.597
11.13 K, Glass | 10.83
11.75 K, Glass | 12.13
12.36 K, Glass | 13.44
12.97 K, Glass | 14.81
13.59 K, Glass | 16.22
14.22 K, Glass | 17.7
14.85 K, Glass | 19.2
15 K, Glass | 19.58
15.58 K, Glass | 20.98
16.44 K, Glass | 23.16
17.29 K, Glass | 25.28
18.15 K, Glass | 27.41
19.01 K, Glass | 29.55
19.88 K, Glass | 31.75
20 K, Glass | 32.08
21.08 K, Glass | 34.8
22.63 K, Glass | 38.75
24.2 K, Glass | 42.72
25 K, Glass | 44.7
25.76 K, Glass | 46.64
27.21 K, Glass | 50.17
28.7 K, Glass | 53.74
30 K, Glass | 56.8
30.28 K, Glass | 57.41
32.02 K, Glass | 61.38
33.93 K, Glass | 65.51
35 K, Glass | 67.76
35.84 K, Glass | 69.47
37.75 K, Glass | 73.26
39.66 K, Glass | 76.94
40 K, Glass | 77.68
41.67 K, Glass | 80.75
43.78 K, Glass | 84.66
45 K, Glass | 86.86
45.89 K, Glass | 88.43
48 K, Glass | 92.13
50 K, Glass | 95.33
50.12 K, Glass | 95.61
52.24 K, Glass | 99
54.36 K, Glass | 102.2
56.48 K, Glass | 105.3
58.61 K, Glass | 108.4
60 K, Glass | 110.5
60.75 K, Glass | 111.5
62.88 K, Glass | 114.5
65.01 K, Glass | 117.4
67.14 K, Glass | 120.3
69.28 K, Glass | 123.1
70 K, Glass | 124.2
71.52 K, Glass | 126
73.86 K, Glass | 129.1
76.21 K, Glass | 132.1
78.57 K, Glass | 135.1
78.59 K, Glass | 135
80 K, Glass | 136.7
80.92 K, Glass | 137.8
81.08 K, Glass | 138.2
83.28 K, Glass | 140.7
83.48 K, Glass | 140.7
85.56 K, Glass | 143.1
85.91 K, Glass | 143.3
88.1 K, Glass | 145.9
88.36 K, Glass | 146.1
90 K, Glass | 148.1
90.56 K, Glass | 148.7
90.83 K, Glass | 148.8
93.04 K, Glass | 151.5
93.31 K, Glass | 151.6
95.54 K, Glass | 154.3
95.81 K, Glass | 154.3
98.06 K, Glass | 156.9
98.33 K, Glass | 156.9
100 K, Glass | 158.7
100.58 K, Glass | 159.4
100.87 K, Glass | 159.6
103.12 K, Glass | 162
103.41 K, Glass | 162.3
105.68 K, Glass | 164.7
105.97 K, Glass | 164.9
108.24 K, Glass | 167.2
108.53 K, Glass | 167.4
110 K, Glass | 169
110.81 K, Glass | 169.8
111.11 K, Glass | 170.1
113.39 K, Glass | 172.7
113.69 K, Glass | 172.7
115.97 K, Glass | 175.1
116.27 K, Glass | 175.4
118.56 K, Glass | 177.8
118.87 K, Glass | 178
120 K, Glass | 179.2
121.16 K, Glass | 180.5
121.47 K, Glass | 180.7
123.76 K, Glass | 183.1
124.08 K, Glass | 183.2
126.37 K, Glass | 185.5
126.68 K, Glass | 185.8
128.98 K, Glass | 188.1
129.3 K, Glass | 188.4
130 K, Glass | 189.1
131.59 K, Glass | 190.7
131.91 K, Glass | 191
133.42 K, Glass | 192.4
134.2 K, Glass | 193.3
134.53 K, Glass | 193.6
136.1 K, Glass | 195
136.82 K, Glass | 195.9
137.15 K, Glass | 196.2
138.71 K, Glass | 197.7
139.43 K, Glass | 198.3
139.77 K, Glass | 198.7
140 K, Glass | 198.9
141.33 K, Glass | 200.2
142.05 K, Glass | 201.1
142.38 K, Glass | 201.3
143.94 K, Glass | 202.8
144.67 K, Glass | 203.6
145 K, Glass | 203.9
146.55 K, Glass | 205.4
147.29 K, Glass | 206.3
147.63 K, Glass | 206.5
149.17 K, Glass | 208
149.9 K, Glass | 209.1
150 K, Glass | 208.9
150.24 K, Glass | 209.1
151.78 K, Glass | 210.6
152.52 K, Glass | 211.6
152.86 K, Glass | 211.8
154.39 K, Glass | 213.3
155.13 K, Glass | 214.2
155.48 K, Glass | 214.4
157 K, Glass | 216
157.74 K, Glass | 216.9
158.09 K, Glass | 217.2
159.61 K, Glass | 218.7
160 K, Glass | 219.3
160.35 K, Glass | 219.7
160.71 K, Glass | 219.9
162.21 K, Glass | 221.6
162.96 K, Glass | 222.4
163.32 K, Glass | 222.8
164.8 K, Glass | 224.5
165.57 K, Glass | 225.6
165.93 K, Glass | 225.7
167.4 K, Glass | 227.5
168.19 K, Glass | 228.6
168.53 K, Glass | 228.9
169.99 K, Glass | 230.8
170 K, Glass | 230.8
170.79 K, Glass | 232
171.13 K, Glass | 232.5
172.58 K, Glass | 234.6
173.37 K, Glass | 236
173.73 K, Glass | 236.7
175.18 K, Glass | 239.5
175.96 K, Glass | 241.5
176.31 K, Glass | 242.4
177.73 K, Glass | 247
178.51 K, Glass | 249.7
178.86 K, Glass | 251.9
180 K, Glass | 260.4
180.22 K, Glass | 262.1
180.97 K, Glass | 268.6
181.29 K, Liquid | 276.1
182.48 K, Liquid | 309.1
183.17 K, Liquid | 322.3
183.45 K, Liquid | 329.7
184.59 K, Liquid | 329.2
185.3 K, Liquid | 329.5
185.6 K, Liquid | 330
186.77 K, Liquid | 331
187.48 K, Liquid | 331.6
187.79 K, Liquid | 331.2
188.95 K, Liquid | 331.4
189.98 K, Liquid | 331.5
190 K, Liquid | 331.5
191.13 K, Liquid | 331.6
192.17 K, Liquid | 331.7
193.32 K, Liquid | 331.9
194.37 K, Liquid | 332
195.51 K, Liquid | 332.2
196.58 K, Liquid | 332.3
197.71 K, Liquid | 332.5
198.79 K, Liquid | 332.6
199.91 K, Liquid | 332.8
200 K, Liquid | 333
202.13 K, Liquid | 333.2
204.34 K, Liquid | 333.6
206.55 K, Liquid | 334
208.77 K, Liquid | 334.5
210 K, Liquid | 335.1
210.99 K, Liquid | 334.9
213.22 K, Liquid | 335.4
215.44 K, Liquid | 335.9
220 K, Liquid | 337.5
230 K, Liquid | 340.4
240 K, Liquid | 343.6
250 K, Liquid | 347.2
260 K, Liquid | 350.9
263.82 K, Liquid | 351.8
266.12 K, Liquid | 352.8
268.4 K, Liquid | 353.7
270 K, Liquid | 354.9
270.68 K, Liquid | 354.6
272.95 K, Liquid | 355.5
275.23 K, Liquid | 356.5
277.5 K, Liquid | 357.6
279.78 K, Liquid | 358.5
280 K, Liquid | 359
282.05 K, Liquid | 359.5
284.33 K, Liquid | 360.3
286.6 K, Liquid | 361.3
288.87 K, Liquid | 362.4
290 K, Liquid | 363.2
291.14 K, Liquid | 363.3
293.42 K, Liquid | 364.3
295.69 K, Liquid | 365.2
297.95 K, Liquid | 366.4
298.15 K, Liquid | 366.7
300 K, Liquid | 367.6
300.22 K, Liquid | 367.4
302.49 K, Liquid | 368.5
304.75 K, Liquid | 369.6
307.02 K, Liquid | 370.7
309.28 K, Liquid | 371.7
310 K, Liquid | 372.3
311.54 K, Liquid | 372.7
313.8 K, Liquid | 373.8
316.06 K, Liquid | 375
318.32 K, Liquid | 376.1
320 K, Liquid | 377
320.58 K, Liquid | 377
322.83 K, Liquid | 378
325.09 K, Liquid | 379.3
327.34 K, Liquid | 380.1
329.59 K, Liquid | 381.1
330 K, Liquid | 381.7
331.84 K, Liquid | 382.2
334.09 K, Liquid | 383.3
336.34 K, Liquid | 384.3
338.58 K, Liquid | 385.6
340 K, Liquid | 386.4
340.83 K, Liquid | 386.7
343.08 K, Liquid | 387.6
345.32 K, Liquid | 388.7
347.57 K, Liquid | 389.7
349.81 K, Liquid | 390.7
350 K, Liquid | 391.1
352.05 K, Liquid | 391.7
354.29 K, Liquid | 392.8
356.53 K, Liquid | 393.9
358.76 K, Liquid | 394.9
360 K, Liquid | 395.9
361 K, Liquid | 395.8
363.23 K, Liquid | 397.1
365.46 K, Liquid | 398
367.7 K, Liquid | 399
370 K, Liquid | 400.6
